Experimental data published in paper PMC12460146, “Impact of metabolic enzyme activity variability on dabrafenib disposition” (Frontiers in Pharmacology, 2025).
Structures can show the parent of a compound that is named as a salt.

Test system: not given
Assay: not given
Parameters: method as in Puszkiel et al., 2019; Balakirouchenane et al., 2021
Conditions: ref Puszkiel et al., 2019; Balakirouchenane et al., 2021; cited from earlier work

Compound | increase of dabrafenib Cmax on ketoconazole coadministration [%] | increase of dabrafenib area under curve (AUC) on ketoconazole coadministration [%]
CC(=O)N1CCN(c2ccc(OCC3COC(Cn4ccnc4)(c4ccc(Cl)cc4Cl)O3)cc2)CC1 (centres unmarked) [ketoconazole] | 33 | 71

Test system: rat liver microsomes (RLM)
Assay: Drug interaction screening of 48 drugs on dabrafenib metabolism in RLM
Assay type: in vitro ADME
Conditions: 100 µM
Procedure: The 200 µL incubation system contained 0.1 M Tris-HCl (pH = 7.6), 0.5 mg/mL RLM or HLM, 1 mM NADPH, and dabrafenib. After pre-incubation (37 °C, 5 min), reactions were initiated by adding 1 mM NADPH and terminated after 40 min with 300 µL ice-cold acetonitrile. Carbamazepine (100 ng/mL) was added as the IS. Samples were vortex-mixed (2 min), centrifuged (17,000 × g, 10 min, 4 °C), and supernatants analyzed by UPLC-MS/MS. Hydroxy-dabrafenib concentrations were quantified via UPLC-MS/MS. Reaction velocity (V) was calculated as hydroxy-dabrafenib formation rate (pmoL/min/µg protein).
For drug interaction screening, inhibitors (100 µM final concentration) were screened in the standard incubation system.
The concentrations of dabrafenib and hydroxy-dabrafenib were quantified by UPLC-MS/MS. Chromatographic separation was performed on a Waters Acquity UPLC BEH C18 column (2.1 mm × 50 mm, 1.7 µm particle size) maintained at 40 °C. […] Total run time was 2 min. Detection employed a Waters Xevo TQS triple quadrupole mass spectrometer (Milford, MA, United States) operated in positive-ion multiple reaction monitoring mode.

Compound | Relative activity (% of control)
CNCC[C@H](Oc1cccc2ccccc12)c1cccs1 [Duloxetine] | 40.82% ± 0.01
Troagliptin succinate | 117.88% ± 0.02

Same assay, conditions: RLM; inhibitor 100 µM; dabrafenib at RLM Km concentration

Compound | inhibition of dabrafenib metabolism [%]
CCCCc1oc2ccc(NS(C)(=O)=O)cc2c1C(=O)c1ccc(OCCCN(CCCC)CCCC)cc1 [Dronedarone hydrochloride] | > 70
Cc1c(OCC(F)(F)F)ccnc1C[S+]([O-])c1nc2ccccc2[nH]1 (centres unmarked) [Lansoprazole] | > 70
CNCCC(Oc1ccc(C(F)(F)F)cc1)c1ccccc1 (centres unmarked) [Fluoxetine] | > 70
O=c1ccc2ccc(OCCCCN3CCN(c4cccc5sccc45)CC3)cc2[nH]1 [Brexpiprazole] | > 70
Cc1ccc(Sc2ccccc2N2CCNCC2)c(C)c1 [Vortioxetine] | > 70

Same assay, conditions: RLM; inhibitor 100 µM; dabrafenib at RLM Km concentration; hydroxy-dabrafenib formation

Compound | Relative activity (% of control)
CC(C)[C@H]1CC[C@H](C(=O)N[C@H](Cc2ccccc2)C(=O)O)CC1 [Nateglinide] | 108.55% ± 0.06
CCCCc1oc2ccc(NS(C)(=O)=O)cc2c1C(=O)c1ccc(OCCCN(CCCC)CCCC)cc1 [Dronedarone hydrochloride] | 20.07% ± 0.02
N#C[C@@H]1C[C@@H]2C[C@@H]2N1C(=O)[C@@H](N)C12CC3CC(CC(O)(C3)C1)C2 [Saxagliptin hydrochloride] | 114.45% ± 0.02
Cc1cnc(NC(=O)C2=C(O)c3ccccc3S(=O)(=O)N2C)s1 [Meloxicam sodium] | 61.62% ± 0.06
C[C@]12CCC(=O)C=C1CC[C@@H]1[C@@H]2[C@@H](O)C[C@@]2(C)[C@H]1CC[C@]2(O)C(=O)CO [Hydrocortisone] | 70.48% ± 0.08
C[C@@H]1C[C@H]2[C@@H]3CCC4=CC(=O)C=C[C@]4(C)[C@@]3(F)[C@@H](O)C[C@]2(C)[C@@]1(O)C(=O)CO [Dexamethasone] | 59.84% ± 0.07
COc1ccc(C(CN(C)C)C2(O)CCCCC2)cc1 (centres unmarked) [Venlafaxine] | 54.22% ± 0.004
CC(=O)Nc1ccc(O)cc1 [Acetaminophen] | 90.08% ± 0.04
CCC(=O)NS(=O)(=O)c1ccc(-c2c(-c3ccccc3)noc2C)cc1 [Parecoxib] | 72.34% ± 0.11
CN(C)CCCC1(c2ccc(F)cc2)OCc2cc(C#N)ccc21 (centres unmarked) [Citalopram] | 59.29% ± 0.07
CN1[C@@H]2CC[C@H]1C[C@@H](OC(=O)c1c[nH]c3ccccc13)C2 [Tropisetron] | 84.28% ± 0.07
Cc1c(OCC(F)(F)F)ccnc1C[S+]([O-])c1nc2ccccc2[nH]1 (centres unmarked) [Lansoprazole] | 27.68% ± 0.01
Cc1ccc(-c2cc(C(F)(F)F)nn2-c2ccc(S(N)(=O)=O)cc2)cc1 [Celecoxib] | 33.72% ± 0.13
CC(C(=O)O)c1ccc(-c2ccccc2)c(F)c1 (centres unmarked) [Flurbiprofen] | 59.91% ± 0.03
Cc1cnc(C(=O)NCCc2ccc(S(=O)(=O)NC(=O)NC3CCCCC3)cc2)cn1 [Glipizide] | 106.96% ± 0.06
CN(C)CCOC(c1ccccc1)c1ccccc1 [Diphenhydramine hydrochloride] | 90.45% ± 0.11
CN1CCN2c3ncccc3Cc3ccccc3C2C1 (centres unmarked) [Mirtazapine] | 50.53% ±0.001
CN1CCOC(c2ccccc2)c2ccccc2C1 (centres unmarked) [Nefopam hydrochloride] | 52.87% ± 0.15
CN(C)CCC=C1c2ccccc2CCc2ccccc21 [Amitriptyline] | 38.88% ± 0.04
CC(NC(C)(C)C)C(=O)c1cccc(Cl)c1 (centres unmarked) [Bupropion] | 30.23% ± 0.06
CNCCC(Oc1ccc(C(F)(F)F)cc1)c1ccccc1 (centres unmarked) [Fluoxetine] | 18.63% ±0.04

Compound | Relative activity (% of control)
Cc1nc2n(c(=O)c1CCN1CCC(c3noc4cc(F)ccc34)CC1)CCCC2O (centres unmarked) [Paliperidone] | 101.95% ± 0.03
C=C[C@H]1C[N@@]2CC[C@H]1C[C@@H]2[C@@H](O)c1ccnc2ccc(OC)cc12 [Quinidine] | 60.50% ± 0.14
O=c1ccc2ccc(OCCCCN3CCN(c4cccc5sccc45)CC3)cc2[nH]1 [Brexpiprazole] | 29.48% ± 0.05
CN1C(C(=O)Nc2ccccn2)=C(O)c2sc(Cl)cc2S1(=O)=O [Lornoxicam] | 65.67% ± 0.04
COc1ccc(Cl)cc1C(=O)NCCc1ccc(S(=O)(=O)NC(=O)NC2CCCCC2)cc1 [Glybenzcyclamide] | 78.13% ± 0.03
CC(C(=O)O)c1ccc(CC2CCCC2=O)cc1 (centres unmarked) [Loxoprofen] | 57.60% ± 0.04
CN[C@H]1CC[C@@H](c2ccc(Cl)c(Cl)c2)c2ccccc21 [Sertraline] | 29.92% ± 0.05
O=c1n(CCCN2CCN(c3cccc(Cl)c3)CC2)nc2ccccn12 [Trazodone] | 49.14% ± 0.01
COc1ccc2c(c1)[C@]13CCCC[C@@H]1[C@H](C2)N(C)CC3 [Dextromethorphan hydrobromide] | 79.28% ± 0.03
COCCc1ccc(OCC(O)CNC(C)C)cc1 (centres unmarked) [Metoprolol Tartrate] | 59.44% ± 0.08
COc1ccc2cccc(CCNC(C)=O)c2c1 [Agomelatine] | 36.20% ± 0.08
Cc1ccc(Sc2ccccc2N2CCNCC2)c(C)c1 [Vortioxetine] | 11.14% ±0.001
CN(CCOc1ccc(CC2SC(=O)NC2=O)cc1)c1ccccn1 (centres unmarked) [Rosiglitazone maleate] | 64.26% ± 0.004
CN/C(=N/CCSCc1nc[nH]c1C)NC#N [Cimetidine] | 84.61% ± 0.03
CN(C)C(=N)N=C(N)N [Metformin hydrochloride] | 109.07% ± 0.01
O=C(O)Cc1ccccc1Nc1c(Cl)cccc1Cl [Diclofenac sodium] | 69.82% ± 0.04
COc1ccc2c(c1)c(CC(=O)O)c(C)n2C(=O)c1ccc(Cl)cc1 [Indomethacin] | 60.51% ± 0.004
COc1ccc2[nH]c([S+]([O-])Cc3ncc(C)c(OC)c3C)nc2c1 (centres unmarked) [Omeprazole] | 46.24% ±0.04
CN(C)CCCN1c2ccccc2CCc2ccc(Cl)cc21 [Clomipramine] | 54.39% ± 0.08
CCC1=C(C)CN(C(=O)NCCc2ccc(S(=O)(=O)NC(=O)N[C@H]3CC[C@H](C)CC3)cc2)C1=O [Glimepiride] | 100.17% ± 0.01
